pKi: −log10 of the molar value. *1 amine or outer side, *2 acyl side, *3 side chain or, on linkers, in order; H or OH if unused. Where a SMILES comes first, the peptide text is derived from it. [ ]: non-standard residue; d: D form. The star is where a group is joined. ξ: configuration not given here. X11 = O=C([C@H](CC1CCCCC1)N(CCCc1ccccc1)[*:1])[*:2]; d(hhPhe) = N[C@H](CCCc1ccccc1)C(=O)O; hPhe = N[C@@H](CCc1ccccc1)C(=O)O; Cha = N[C@@H](CC1CCCCC1)C(=O)O; ξhhPhe = NC(CCCc1ccccc1)C(=O)O; X1 = O=C(CC1CNc2ccccc21)*; Ahx = NCCCCCC(=O)O
Target: T1, C5a receptor (Homo sapiens, UniProt P21730)
T1 construct: from tissue; host or cells: polymorphonuclear leukocyte (PMNL) membrane fragments
T1 sequence (P21730 1-350): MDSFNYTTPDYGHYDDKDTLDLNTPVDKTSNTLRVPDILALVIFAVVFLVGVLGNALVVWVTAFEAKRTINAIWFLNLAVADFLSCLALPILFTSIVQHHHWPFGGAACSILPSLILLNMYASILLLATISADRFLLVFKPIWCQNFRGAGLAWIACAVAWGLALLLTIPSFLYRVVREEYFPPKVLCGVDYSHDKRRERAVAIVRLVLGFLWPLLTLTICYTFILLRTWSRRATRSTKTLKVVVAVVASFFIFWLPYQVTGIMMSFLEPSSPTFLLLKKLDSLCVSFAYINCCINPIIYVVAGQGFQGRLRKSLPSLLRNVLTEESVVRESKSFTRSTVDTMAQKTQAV
Assay: Anaphylatoxin (C5a) receptor binding Ki determination, 125I-C5a on PMNL membrane fragments
Details: read-out: Ki (In vitro C5a Receptor Binding Potency)
Description: The membrane-bound radiolabeled C5a was separated from the free radiolabeled C5a by filtration, and the recovered gamma radioactivity was measured. […] Free and membrane-bound ligand were separated by filtration.

SMILES	pKi
CC(C)C[C@@H](NC(=O)CNC(=O)[C@H](CC1CCCCC1)NC(=O)CCCCCN)C(=O)NC(CCCc1ccccc1)C(=O)N[C@@H](CCCNC(=N)N)C(=O)O (single isomer, unassigned) [Example 100]	4.22
N=C(N)NCCC[C@H](NC(=O)C(CCCc1ccccc1)NC(=O)[C@@H](Cc1ccccc1)NC(=O)CNC(=O)[C@H](CC1CCCCC1)NC(=O)CCCCCN)C(=O)O (mixture of isomers) [Example 58, N-(6-Aminohexanoyl)-{(2S)-2-Amino-3-cyclohexylpropanoyl}-Glycyl-DPhenylalanyl-{(R/S)-2-Amino-5-phenylpentanoyl}-Arginyl-OH]	5.19
CC(C)C[C@H](NC(=O)[C@H](C)NC(=O)[C@H](CC1CCCCC1)NC(=O)[C@@H]1CCCN1C(=O)[C@H](C)NC(=O)[C@@H](N)Cc1ccccc1)C(=O)NC(CCCc1ccccc1)C(=O)N[C@@H](CCCNC(=N)N)C(=O)O (mixture of isomers) [Example 143, H-Phenylalanyl-Alanyl-Prolyl-{(2S)-2-Amino-3-cyclohexylpropanoyl}-Alanyl-Leucyl-{(±)-2-Amino-5-phenylpentanoyl}-Arginyl-OH]	7.27
CC(C)C[C@H](NC(=O)CNC(=O)[C@@H](CC1CCCCC1)NC(=O)CCCCCN)C(=O)NC(CCCc1ccccc1)C(=O)N[C@@H](CCCNC(=N)N)C(=O)O (single isomer, unassigned) [Example 35]	5.90
CC(C)C[C@H](NC(=O)CNC(=O)[C@H](CC1CCCCC1)NC(=O)[C@@H](N)CCCCN)C(=O)NC(CCCc1ccccc1)C(=O)N[C@@H](CCCNC(=N)N)C(=O)O (single isomer, unassigned) [Example 42, H-Lysyl-{(2S)-2-Amino-3-cyclohexylpropanoyl}-Glycyl-Leucyl-{(R/S)-2-Amino-5-phenylpentanoyl}-Arginyl-OH]	6.35
CC(C)C[C@H](NC(=O)[C@H](CCCCN)NC(=O)[C@@H](N)CC1CCCCC1)C(=O)NC(CCCc1ccccc1)C(=O)N[C@@H](CCCNC(=N)N)C(=O)O (single isomer, unassigned) [Example 97]	5.09
N=C(N)NCCC[C@H](NC(=O)C(CCCc1ccccc1)NC(=O)CN(Cc1ccccc1)C(=O)[C@H](CCCCN)NC(=O)[C@@H](N)Cc1ccccc1)C(=O)O (single isomer, unassigned) [Example 94, H-Phenylalanyl-Lysyl-Glycyl(N-benzyl)-{(R/S)-2-Amino-5-phenylpentanoyl}-Arginyl-OH]	5.24
CC(C)C[C@H](NC(=O)[C@H](C)NC(=O)[C@H](CC1CCCCC1)NC(=O)[C@@H]1CCCN1C(=O)[C@@H](N)CCCCN)C(=O)NC(CCCc1ccccc1)C(=O)N[C@@H](CCCNC(=N)N)C(=O)O (single isomer, unassigned) [Example 68]	4.85
CN[C@@H](Cc1ccccc1)C(=O)N[C@@H](CCCCN)C(=O)N1CCC[C@H]1C(=O)N[C@@H](CC1CCCCC1)C(=O)N[C@@H](C)C(=O)N[C@@H](CC(C)C)C(=O)NC(CCCc1ccccc1)C(=O)N[C@@H](CCCNC(=N)N)C(=O)O (single isomer, unassigned) [Example 129]	7.77
CC(=O)N[C@@H](CC1CCCCC1)C(=O)NCC(=O)N[C@@H](CC(C)C)C(=O)NC(CCCc1ccccc1)C(=O)N[C@@H](CCCNC(=N)N)C(=O)O (single isomer, unassigned) [Example 46, N-Acetyl-{(2S)-2-Amino-3-cyclohexylpropanoyl}-Glycyl-Leucyl-{(R/S)-2-Amino-5-phenylpentanoyl}-Arginyl-OH]	4.66
CC(C)C[C@H](NC(=O)CNC(=O)[C@H](CC1CCCCC1)N(C)C(=O)CCCCN)C(=O)NC(CCCc1ccccc1)C(=O)N[C@@H](CCCNC(=N)N)C(=O)O (single isomer, unassigned) [Example 37]	5.49
CC(C)C[C@H](NC(=O)CNC(=O)[C@@H](N)CCc1ccccc1)C(=O)N[C@H](CCCc1ccccc1)C(=O)N[C@@H](CCCNC(=N)N)C(=O)O [Example 117, H-{(S)-2-Amino-4-phenylbutyryl}-Glycyl-Leucyl-{(R)-2-Amino-5-phenylpentanoyl}-Arginyl-OH] (H-[hPhe]GL[d(hhPhe)]R-OH)	6.43
CC(C)C[C@H](NC(=O)[C@H](C)NC(=O)[C@H](CC1CCCCC1)NC(=O)CCCCCN)C(=O)NC(CCCc1ccccc1)C(=O)N[C@@H](CCCNC(=N)N)C(=O)O (single isomer, unassigned) [Example 121]	5.15
CC(C)C[C@H](NC(=O)CNC(=O)[C@H](CC1CCCCC1)NCCCc1ccccc1)C(=O)N[C@H](CCCc1ccccc1)C(=O)N[C@@H](CCCNC(=N)N)C(=O)O [Example 77, N-(3-Phenylpropyl)-{(2S)-2-Amino-3-cyclohexylpropanoyl}-Glycyl-Leucyl-{(R)-2-Amino-5-phenylpentanoyl}-Arginyl-OH] (H-[X11]GL[d(hhPhe)]R-OH)	7.30
CC(C)C[C@H](NC(=O)CNC(=O)[C@H](CCC1CCCCC1)NC(=O)CCCCCN)C(=O)NC(CCCc1ccccc1)C(=O)N[C@@H](CCCNC(=N)N)C(=O)O (single isomer, unassigned) [Example 137]	5.38
CC(C)C[C@H](NC(=O)CNC(=O)CC1CNc2ccccc21)C(=O)N[C@H](CCCc1ccccc1)C(=O)N[C@@H](CCCNC(=N)N)C(=O)O (stereo partly drawn) [Example 80, N-[(Indoline-3-yl)acetyl]-Glycyl-Leucyl-{(R)-2-Amino-5-phenylpentanoyl}-Arginyl-OH] (X1-GL[d(hhPhe)]R-OH)	6.06
CC(C)C[C@H](NC(=O)CNC(=O)[C@H](CC1CCCCC1)NC(=O)[C@H](N)CCCCN)C(=O)NC(CCCc1ccccc1)C(=O)N[C@@H](CCCNC(=N)N)C(=O)O (single isomer, unassigned) [Example 57]	5.71
CC(C)C[C@H](NC(=O)CCNC(=O)[C@H](CC1CCCCC1)NC(=O)CCCCCN)C(=O)NC(CCCc1ccccc1)C(=O)N[C@@H](CCCNC(=N)N)C(=O)O (single isomer, unassigned) [Example 114]	4.73
CC(C)C[C@H](NC(=O)CNC(=O)[C@H](CCC1CCCCC1)NC(=O)CCCCCN)C(=O)NC(CCCc1ccccc1)C(=O)N[C@@H](CCCNC(=N)N)C(=O)O (single isomer, unassigned) [Example 138]	6.48
CC(C)C[C@H](NC(=O)[C@H](CCCCN)NC(=O)[C@@H](N)CC1CCCCC1)C(=O)NC(CCCc1ccccc1)C(=O)N[C@@H](CCCNC(=N)N)C(=O)O (single isomer, unassigned) [Example 96]	4.48
C[C@H](NC(=O)CNC(=O)[C@H](CC1CCCCC1)NC(=O)CCCCCN)C(=O)NC(CCCc1ccccc1)C(=O)N[C@@H](CCCNC(=N)N)C(=O)O (stereo partly drawn) [Example 74, N-(6-Aminohexanoyl)-{(2S)-2-Amino-3-cyclohexylpropanoyl}-Glycyl-Alanyl-{(+)-2-Amino-5-phenylpentanoyl}-Arginyl-OH] (H-[Ahx][Cha]GA[ξhhPhe]R-OH)	4.04
CC(C)C[C@H](NC(=O)CNC(=O)[C@H](CC1CCCCC1)NC(=O)CCCCCCN)C(=O)N(C)C(CCCc1ccccc1)C(=O)N[C@@H](CCCNC(=N)N)C(=O)O (mixture of isomers) [Example 28]	5.76
CC(C)C[C@H](NC(=O)CNC(=O)[C@H](CC1CCCCC1)NC(=O)NCc1cccc(CN)c1)C(=O)NC(CCCc1ccccc1)C(=O)N[C@@H](CCCNC(=N)N)C(=O)O (single isomer, unassigned) [Example 141]	4.80
